Assay results from article PMC6563844, “Identification and in vivo Efficacy Assessment of Approved Orally Bioavailable Human Host Protein-Targeting Drugs With Broad Anti-influenza A Activity” (Frontiers in Immunology, 2019).
Where two headings read alike, the source gives them in different places.

Experiments:
[1] = system: H1N1 A/Puerto Rico/8/34 (PR8)
[2] = system: H1N1pdm09 (A/Mexico/InDRE4487/2009); set-up: species or system ferrets (mustela putorius furo); conditions: in vivo
PR8 [3] = system: PR8; set-up: species or system C57BL/6 mice; conditions: mouse, in vivo, po
[4] = system: H3N2 (A/Victoria/36/2011); experiment: microbe, parasite or virus in culture; type: cell-based, influenza A virus
[5] = system: pH1N1 (H1N1pdm09 A/Mexico/InDRE4487/2009); experiment: microbe, parasite or virus in culture; type: cell-based, influenza A virus
MDCK cells = experiment: MTT assay (cytotoxicity); conditions: MDCK cells, 24 h, MTT
Experimental: (§1) The MTT assay was performed according to the manufacturer's protocol (Thermo Fisher Vybrant MTT Cell Proliferation Assay Kit). Briefly, MDCK cells grown in a 96-well-plate were treated with the respective drugs at 5-fold descending concentrations starting at 500 mM or left untreated. After 24 h, medium was replaced by PBS containing 1 mM MTT. After incubation for 4 h at 37°C, supernatants were removed, mixed with DMSO and further incubated for 10 min at 37°C before absorption was measured at 562 nm using a PHOmo Microplate reader. To calculate the relative cytotoxicity, the absorbance of untreated cells was set to 1. The 50% cytotoxic concentration (CC50) was calculated using GraphPad 6, and the selectivity index (SI) represents the ratio of CC50 to EC50.

PR8 [6] = experiment: microbe, parasite or virus in culture; type: cell-based, influenza A virus
[7] = system: influenza strains A/Puerto Rico/8/34 (PR8), A/Mexico/InDRE4487/2009 (H1N1pdm09), A/Victoria/36/2011 (H3N2); type: cell-based, influenza A virus
[8] = system: H1N1 and H3N2 influenza A viruses (PR8, H1N1pdm09, H3N2); experiment: microbe, parasite or virus in culture; type: cell-based
MTT assay (cytotoxicity) = conditions: dog
Experimental: as §1

in vitro = conditions: dog
Experimental: as §1

[9] = read-out: EC50 (50% effective dose)

## O=C1CCC(N2C(=O)c3ccccc3C2=O)C(=O)N1 (centres unmarked) [Thalidomide]
[1]
  Inhibitory effect: No inhibition
  antiviral activity in initial screen: no antiviral activity

## Nc1ncnc2c1ncn2[C@@H]1O[C@H](COP(=O)(O)OP(=O)(O)OP(=O)(O)O)[C@@H](O)[C@H]1O [Adenosine triphosphate]
[1]
  Inhibitory effect: No inhibition
  antiviral activity in initial screen: no antiviral activity

## CCCCC1=NC2(CCCC2)C(=O)N1Cc1ccc(-c2ccccc2-c2nnn[nH]2)cc1 [Irbesartan]
[1]
  Inhibitory effect: toxic
  antiviral activity: no antiviral activity
  toxicity in the screen: pronounced toxicity

## NCCCC(O)(P(=O)(O)O)P(=O)(O)O [Alendronate]
[1]
  Inhibitory effect: toxic
  antiviral activity: no antiviral activity

## CCOC(=O)C1=C[C@@H](OC(CC)CC)[C@H](NC(C)=O)[C@@H](N)C1 [Oseltamivir phosphate, oseltamivir phosphate]
[2]
  clinical score: minimal clinical score peaking on day 3
[2]; po
  reduction in nasal wash titers: 10 fold
PR8 [3]
  reduction of lung titers: 28 fold

## O=[N+]([O-])[O-].O=[N+]([O-])[O-].O=[N+]([O-])[O-].[Ga+3] [Gallium nitrate]
[4]; read-out: EC50
  EC50: 5.7 ± 0.9 µM
[5]; pH1N1
  EC50: 55.3 ± 2.9 µM
PR8 [3]
  effect on lung viral titers: no significant effect
MDCK cells
  CC50: 716 ± 116 µM
PR8 [6]; read-out: EC50
  EC50: 54.8 ± 2.2 µM
[1]
  Inhibitory effect (fold inhibition): >10-fold inhibition
  antiviral activity in initial screen: able to inhibit infection at doses above 50 μM without causing toxicity
[7]
  reduction of viral titers: around 10 fold

## CC[C@]1(O)C[C@@H]2CN(CCc3c([nH]c4ccccc34)[C@@](C(=O)OC)(c3cc4c(cc3OC)N(C)[C@H]3[C@@](O)(C(=O)OC)[C@H](OC(C)=O)[C@]5(CC)C=CCN6CC[C@]43[C@@H]65)C2)C1 [Vinblastine]
[1]
  Inhibitory effect: toxic
  antiviral activity: no antiviral activity
  toxicity in the screen: pronounced toxicity

## N=C(N)NC(=O)c1nc(Cl)c(N)nc1N [Amiloride]
[1]
  Inhibitory effect: No inhibition
  antiviral activity in initial screen: no antiviral activity

## COc1ccc2c(c1)[C@]13CCCC[C@@H]1[C@H](C2)N(C)CC3 [Dextromethorphan]
[4]; Influenza A virus, H3N2, MDCK
  EC50: 51.7 ± 4.2 µM
[5]; Influenza A virus, MDCK, pH1N1
  EC50: 50.8 ± 3.3 µM
[2]
  clinical score: significantly lower peak score
  weight loss: < 10%
[2]; po
  body weight effect: slightly increase the weight loss
  effect on nasal wash titers: no effect
[8]; [9]
  EC50: 5 to 50 µM
PR8 [3]
  effect on lung viral titers: more variable but significant reduction
MTT assay (cytotoxicity)
  CC50 at 24 h: 3546 ± 11.1 µM
PR8 [6]; Influenza A virus, PR8, MDCK
  EC50: 48.7 ± 2.3 µM
[1]
  Inhibitory effect (fold inhibition): >10-fold inhibition
  antiviral activity in initial screen: able to inhibit infection at doses above 50 μM without causing toxicity
[7]
  reduction of viral titers: around 1,000 fold

## CN1CCC(=C2c3ccccc3CC(=O)c3sccc32)CC1 [Ketotifen]
[4]; Influenza A virus, H3N2, MDCK
  EC50: 48.5 ± 2 µM
In vitro
  CC50 at 24 h: 291 ± 14.8 µM
[5]; Influenza A virus, MDCK, pH1N1
  EC50: 33.7 ± 1.3 µM
[8]; [9]
  EC50: 5 to 50 µM
PR8 [6]; Influenza A virus, PR8, MDCK
  EC50: 5.9 ± 0.2 µM
[1]
  Inhibitory effect (fold inhibition): >10-fold inhibition
  antiviral activity in initial screen: able to inhibit infection at doses above 50 μM without causing toxicity
[7]
  reduction of viral titers: 100 fold

## CC(=O)N[C@@H]1[C@@H](O)[C@H](O)[C@@H](CO)O[C@@H]1O [N-Acetyl-D-Glucosamine]
[1]
  Inhibitory effect: No inhibition
  antiviral activity in initial screen: no antiviral activity

## CCC(CC)O[C@@H]1C=C(C(=O)O)C[C@H](N)[C@H]1NC(C)=O [oseltamivir carboxylate]
[5]
  EC50: ~0.2 µM
PR8 [6]; read-out: EC50
  EC50: 0.005 µM
[7]
  concentration completely inhibiting replication: higher than 5 μM

## CN(C)/N=N/c1[nH]cnc1C(N)=O [Dacarbazine]
[1]
  Inhibitory effect: no inhibition
  antiviral activity in initial screen: no antiviral activity

## N[C@@H](CCC(=O)O)C(=O)O [L-Glutamic Acid]
[1]
  Inhibitory effect: No inhibition
  antiviral activity in initial screen: no antiviral activity

## CC(O)(P(=O)(O)O)P(=O)(O)O [Etidronic Acid]
[1]
  Inhibitory effect: No inhibition
  antiviral activity in initial screen: no antiviral activity

## CC(C)NCC(O)c1ccc(O)c(O)c1 (centres unmarked) [Isoproterenol]
[1]
  Inhibitory effect: toxic
  antiviral activity: no antiviral activity
  toxicity in the screen: pronounced toxicity

## O=C1CC[C@@]2(O)[C@H]3Cc4ccc(O)c5c4[C@@]2(CCN3CC2CC2)[C@H]1O5 [Naltrexone]
[4]
  inhibition efficiency: less efficient
[4]; Influenza A virus, H3N2, MDCK
  EC50: > 500 µM
[5]; Influenza A virus, MDCK, pH1N1
  EC50: 48 ± 3.2 µM
[8]
  EC50: 5 to 50 µM
PR8 [3]
  effect on lung viral titers: no significant effect
MTT assay (cytotoxicity)
  CC50 at 24 h: 5230 ± 227 µM
PR8 [6]; Influenza A virus, PR8, MDCK
  EC50: 4.7 ± 0.2 µM
[1]
  Inhibitory effect (fold inhibition): >10-fold inhibition
  antiviral activity in initial screen: able to inhibit infection at doses above 50 μM without causing toxicity
[7]
  reduction of viral titers: 100 fold

## CCOC(=O)C1=C[C@@H](OC(CC)CC)[C@H](NC(C)=O)[C@@H](N)C1 [Oseltamivir]
[4]; Influenza A virus, H3N2, MDCK
  EC50: 0.05 ± 0.003 µM
In vitro
  CC50 at 24 h: 470 ± 12.3 µM
[5]; Influenza A virus, MDCK, pH1N1
  EC50: 0.2 ± 0.05 µM
PR8 [6]; Influenza A virus, PR8, MDCK
  EC50: 0.005 ± 0.0004 µM
